From patent publication US20230295234A1, “ANTIMICROBIAL PEPTIDOMIMETICS” (SPEXIS AG, priority 2020, published 2023)
Peptide text beside a SMILES is read from it.

Legend:
[1] = system: human red blood cells (hRBC); assay: Hemolysis of human red blood cells; format: cell-based; conditions: red cells of human, 1 h
Method in brief: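 PBS-washed human red blood cells (20% v/v) were incubated with peptide at 200 μg/mL for 1 h at 37 °C with shaking. Supernatant OD was read at 540 nm after 8-fold dilution. Hemolysis is expressed as percent of the water control.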

[2] = system: Escherichia coli MCR-1 Af 45; conditions: MCR-1 Af 45
Method in brief: (§1)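 Broth microdilution; cation-adjusted MHII; inoculum ~5×10^5 CFU/mL from 0.5 McFarland saline suspension; peptide two-fold serial dilutions; polysorbate 80 0.002% final; peptide stock 1 mg/mL in water.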

[3] = system: Escherichia coli ATCC 25922; conditions: ATCC 25922
Method in brief: as §1

[4] = system: Klebsiella pneumoniae SSI3010; conditions: SSI3010
Method in brief: as §1

| Escherichia coli MCR-1 Af 45 MIC [2] [µg/mL] | Escherichia coli ATCC 25922 MIC [3] [µg/mL] | Klebsiella pneumoniae SSI3010 MIC [4] [µg/mL] | Compound | Hemolysis at 0.2 g/L [1] [%] |
| --- | --- | --- | --- | --- |
| 0.0625 | 0.125 | 0.25 | CC[C@H](C)[C@H](NC(=O)[C@@H]1C[C@@H](O)CN1C(=O)[C@@H](NC(=O)[C@@H]1C[C@@H](O)CN1C(=O)[C@H](CCCCN)NC(=O)[C@@H](N)CCCCN)C(C)C)C(=O)N[C@H](C(=O)N[C@@H](Cc1ccc(O)cc1)C(=O)N[C@@H]1C(=O)N[C@@H](CC(N)=O)C(=O)N[C@@H](CCCNC(=N)N)C(=O)N[C@@H](CCN)C(=O)N[C@@H]([C@@H](C)O)C(=O)N[C@H](CCN)C(=O)N[C@@H](CCCCN)C(=O)N[C@H](C(=O)N[C@@H](CO)C(=O)N[C@@H](CCCNC(=N)N)C(=O)N[C@@H](Cc2ccc(O)cc2)C(=O)O)CSSC1(C)C)[C@@H](C)O [Example 123, Lys-Lys-Hyp-Val-Hyp-Ile-Thr-Tyr-Pen-Asn-Arg-Dab-Thr-^DDab-Lys-Cys-Ser-Arg-Tyr] (HELM PEPTIDE1{K.K.[Hyp].V.[Hyp].I.T.Y.[Pen].N.R.[Dab].T.[NCC[C@@H](N[*:1])C(=O)[*:2]].K.C.S.R.Y}$PEPTIDE1,PEPTIDE1,9:R3-16:R3$$$V2.0) | 0 |
| 0.0625 | 0.125 | 0.25 | CC[C@H](C)[C@H](NC(=O)[C@@H]1C[C@@H](O)CN1C(=O)[C@@H](NC(=O)[C@@H]1C[C@@H](O)CN1C(=O)[C@H](CCCCN)NC(=O)[C@@H](N)CCCCN)C(C)C)C(=O)N[C@H](C(=O)N[C@@H](Cc1ccc(O)cc1)C(=O)N[C@@H]1C(=O)N[C@@H](CC(N)=O)C(=O)N[C@@H](CCCNC(=N)N)C(=O)N[C@@H](CCN)C(=O)N[C@@H]([C@@H](C)O)C(=O)N[C@H](CCN)C(=O)N[C@@H](CCCCN)C(=O)N[C@H](C(=O)N[C@@H](CCN)C(=O)N[C@@H](CCCN)C(=O)N[C@@H](Cc2ccc(O)cc2)C(=O)O)CSSC1(C)C)[C@@H](C)O [Example 124, Lys-Lys-Hyp-Val-Hyp-Ile-Thr-Tyr-Pen-Asn-Arg-Dab-Thr-^DDab-Lys-Cys-Dab-Orn-Tyr] (HELM PEPTIDE1{K.K.[Hyp].V.[Hyp].I.T.Y.[Pen].N.R.[Dab].T.[NCC[C@@H](N[*:1])C(=O)[*:2]].K.C.[Dab].[Orn].Y}$PEPTIDE1,PEPTIDE1,9:R3-16:R3$$$V2.0; N-terminus and C-terminus assumed) | 0 |
| 0.0625 | ≤0.03125 | 0.0625 | CC[C@H](C)[C@H](NC(=O)[C@@H]1C[C@@H](N)CN1C(=O)[C@@H](NC(=O)[C@@H]1C[C@@H](O)CN1C(=O)[C@H](CCCCN)NC(=O)[C@@H](N)CCCCN)C(C)C)C(=O)N[C@H](C(=O)N[C@@H](Cc1ccc(O)cc1)C(=O)N[C@@H]1C(=O)N[C@@H](CC(N)=O)C(=O)N[C@@H](CCCNC(=N)N)C(=O)N[C@@H](CCN)C(=O)N[C@@H]([C@@H](C)O)C(=O)N[C@H](CCN)C(=O)N[C@@H](CCCCN)C(=O)N[C@H](C(=O)N[C@@H](CCN)C(=O)N[C@@H](CCCNC(=N)N)C(=O)N[C@@H](Cc2ccc(O)cc2)C(=O)O)CSSC1(C)C)[C@@H](C)O [Example 125, Lys-Lys-Hyp-Val-Pro((4R)NH2)-Ile-Thr-Tyr-Pen-Asn-Arg-Dab-Thr-^DDab-Lys-Cys-Dab-Arg-Tyr] (HELM PEPTIDE1{K.K.[Hyp].V.[N[C@@H]1C[C@@H](C(=O)[*:2])N([*:1])C1].I.T.Y.[Pen].N.R.[Dab].T.[NCC[C@@H](N[*:1])C(=O)[*:2]].K.C.[Dab].R.Y}$PEPTIDE1,PEPTIDE1,9:R3-16:R3$$$V2.0) | 0 |
